Data: US20080039410A1, “Inositol 1,4,5-Trisphosphate Receptor Mutants and Uses Thereof” (priority 2004, published 2008)
Entries after “also recorded” stand apart in the source; their conditions may differ.

Key:
S2+ InsP3R-1 [1] = test: Potentiation of CCh-induced Ca2+ release after PKA activation (forskolin), S2+ InsP3R-1 constructs in DT-40 3ko cells; type: cell-based, rat; conditions: for effect of forskolin treatment on CCh-induced [Ca^2+]i peak: 20 μM forskolin, threshold CCh; for Ca^2+ release after PKA activation: S2 + InsP3R-1 constructs, Table 2
Method: DT-40 cells lacking all three InsP3 receptor subtypes DT-40 3ko were transfected using electroporation, 350 V and 950 μF. 2×10^7 cells were co-transfected with 25 μg of the InsP3R cDNA, 25 μg of the muscarinic type 3 (M3) receptor, and 4 μg of the red fluorescent protein plasmid pHcRed1-N1. Cells were incubated with DNA in 500 μL of Optimem media on ice for 10 minutes. The cell/DNA mixture was electroporated, incubated on ice for 30 minutes, brought up to 5 ml with Optimem and placed in a 5% C02 incubator at 39° C. for 5 hours. The cells were then centrifuged and resuspended in 12 ml of complete RPMI media. Transfection efficiency was typically ˜20%. Experiments were performed within 32 hours of transfection.
(§1) Transfected DT-40 3ko cells were washed once in a HEPES-buffered physiological saline solution (HEPES-PSS) containing (in mM) 5.5 glucose, 137 NaCl, 0.56 MgCl2, 4.7 KCl, 1 Na2HPO4, 10 HEPES (pH 7.4), 1.2 CaCl2 and 1% w/v Bovine Serum Albumin. Cells were then resuspended in BSA HEPES-PSS with 1 μM Fura-2 (AM), placed on a 15 mm glass coverslip in a low volume perfusion chamber (Warner Instruments) and allowed to adhere for 30 minutes at room temperature. Cells were perfused continually for 10 minutes with HEPES-PSS before experimentation to allow Fura-2 de-esterification. A field of cells for each experiment was chosen that contained a wide range of transfection efficiency based upon the intensity of red fluorescence emitted when excited at 560 nm. [Ca^2+]i imaging was performed essentially as previously described using an inverted epifluorescence Nikon microscope with a 40× oil immersion objective lens (numerical aperture, 1.3). Cells were excited alternately with light at 340 and 380 nm (±10 mn bandpass filters, Chroma) using a monochrometer (TILL Photonics). Fluorescence images were captured and digitized with a digital camera driven by TILL Photonics software. Images were captured every 2 seconds with an exposure of 35 ms and no binning. 340/380 ratio images were calculated online and stored immediately to hard disk.
(§2) The effects of treatment were determined by normalizing the peak change in fluorescence ratio by stimulation following forskolin or 8-Br cGMP exposure to that of stimulation in control HEPES-PSS. Thus, pooled data represents a normalized fold increase over control for the treated trial. Two tailed heteroscedastic t-tests with P values<0.05 were considered to have statistical significance.
Experiments were performed in DT-40 3ko cells transfected with S2^+ InsP3R-1. Since there are no reports of Gαq coupled receptors expressed in DT-40 cells, initial experiments were performed eliciting [Ca^2+]i changes by stimulating the endogenous B cell receptor with α-IgM antibody. […] Thus, in all further experiments, DT-40 3ko cells were co-transfected with the M3 receptor, and HcRed to facilitate identification of transfected cells (inset FIG. 1). Stimulation of M3 receptors with the muscarinic agonist carbachol (CCh), provided a convenient means of stimulating [Ca^2+]i changes, presumably through Gαq-induced activation of phospholipase C and production of InsP3. […] The potentiation was most marked when threshold elevations in [Ca^2+]i were evoked by the initial exposure to CCh and therefore only cells in which the initial CCh treatment evoked a Δ 340/380 ratio of<0.2 ratio units were included for analysis. […] [Ca^2+]i changes were never evoked by CCh treatment in cells transfected with only M3 cDNA in the absence of InsP3R or likewise InsP3R with no M3 cDNA.
The effects of treatment were determined by normalizing the peak change in fluorescence ratio by stimulation following forskolin or 8-Br-cGMP exposure to that of stimulation in control HEPES-PSS. Thus, pooled data represent a normalized fold increase over control for the treated trial. In all cases where statistical significance is indicated, two-tailed heteroscedastic t tests were performed. […]

S2+ InsP3R-1 [2] = test: Potentiation of CCh-induced Ca2+ release after PKG activation (8-Br cGMP), S2+ InsP3R-1 constructs in DT-40 3ko cells; type: cell-based, rat; conditions: for effect of 8-Br cGMP treatment on CCh-induced Ca^2+ release: 10 μM 8-Br cGMP, threshold CCh; for Ca^2+ release after PKG activation: S2 + InsP3R-1 constructs, Table 2
Method: as §1, §2
Similar experiments were performed to assess the effects on Ca^2+ release of phosphorylating InsP3R-1 with PKG. Cells transfected with S2^+ InsP3R-1 together with M3 receptor and HcRed were stimulated with low, threshold concentrations of CCh (25-50 nM) followed by a 10 min treatment with 10 μM 8-Br cGMP, a specific activator of PKG [48]. […] In a similar fashion to PKA activation, this was manifested as an increase in the CCh-induced initial peak (FIG. 4A and pooled data FIG. 4E).
The effects of treatment were determined by normalizing the peak change in fluorescence ratio by stimulation following forskolin or 8-Br-cGMP exposure to that of stimulation in control HEPES-PSS. Thus, pooled data represent a normalized fold increase over control for the treated trial. In all cases where statistical significance is indicated, two-tailed heteroscedastic t tests were performed. P values<0.05 were considered to indicate statistical significance and are denoted by an asterisk in the figures.
Despite these differences, experiments were performed to define further the phosphorylation sites important for regulation of Ca^2+ release by PKG. […] In contrast, in cells expressing S2+SE no effect on CCh-induced Ca^2+ release following activation of PKG was observed (FIG. 23C and pooled data in FIG. 23D).

Row | Substance | effect of forskolin treatment on CCh-induced [Ca^2+]i peak (S2+ InsP3R-1 [1]) | Ca^2+ release after PKA activation (S2+ InsP3R-1 [1]) | effect of 8-Br cGMP treatment on CCh-induced Ca^2+ release (S2+ InsP3R-1 [2]) | Ca^2+ release after PKG activation (S2+ InsP3R-1 [2])
1 | S2+ES: S2+ InsP3R-1, long splice variant with S1589E | marked potentiation; also recorded: markedly potentiated | Enhanced | markedly potentiated | enhanced
2 | S2+SE: phosphomimetic S2+ InsP3R-1, long splice variant of S1755E | no further potentiation | No change | no effect; also recorded: no potentiation | no change
